The text below walks through data of patent publication US10669272B2, “Substituted naphthyridinone compounds useful as T cell activators” (BRISTOL-MYERS SQUIBB COMPANY, priority 2018, dated 2020).

The structures appear in SMILES notation. Counter-ions that a name gives are not always drawn. Like-named read-outs stand apart in the source and are kept apart here.

Assay [1] relates to OT-1 CD8+ T cells with SIINFEKL-loaded MC38 tumor cells. The assay is described as follows: Murine cytotoxic T lymphocyte assay (IFN-γ, OT-1 CTL with MC38 tumor cells). In kind it is cell-based, mouse. Particulars: read-out: msCTL INFg IC50. The source says:
5. Murine Cytotoxic T Lymphocyte Assay
An antigen-specific cytolytic T-cell (CTL) assay was developed to evaluate functionally the ability of DGKα and DGKζ inhibitors to enhance effector T cell mediated tumor cell killing activity. CD8+ T-cells isolated from the OT-1 transgenic mouse recognize antigen presenting cells, MC38, that present the ovalbumin derived peptide […]. Recognition of the cognate antigen initiates the cytolytic activity of the OT-1 antigen-specific CD8+ T cells.
Functional CTL cells were generated as follows: OT-1 splenocytes from 8-12 week old mice were isolated and expanded in the presence of the […] peptide at 1 μg/mL and mIL2 at 10 U/mL. After three days, fresh media with […] was added. On day 5 of the expansion, the CD8+ T cells were isolated and ready for use. Activated CTL cells may be stored frozen for 6 months. Separately, one million MC38 tumor cells were pulsed with 1 μg/mL of […]-OVA peptide for 3 hours at 37° C. The cells were washed (3×) with fresh media to remove excess peptide. Finally, CTL cells that were pretreated with DGK inhibitors for 1 hour in a 96-well U bottom plate were combined with the antigen loaded MC38 tumor cells at a 1:10 ratio. The cells were then spun at 700 rpm for 5 min and placed in an incubator overnight at 37° C. After 24 hours, the supernatant was collected for analysis of IFN-γ cytokine levels by AlphaLisa purchased from Perkin Elmer.

In assay [2] the target is T1, human DGKα (Homo sapiens, UniProt P23743).
T1 construct: TVMV protease cleavage site (C); Hexa-His (C); made in house; host or cells: Sf9 insect cells (baculovirus, Bac-to-Bac)
The assay can be described thus: DGKα LIPGLO assay (extruded liposome substrate), in vitro DGK inhibition. Format: biochemical. Particulars: read-out: DGKa LIPGLO IC50.

Assay [3] concerns Human venous whole blood. The assay can be described thus: Human whole blood IFN-γ assay.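 Note: blood from healthy donors exposed to compound for 1 h before stimulation with anti-CD3 and anti-CD28 at 1 µg/mL each, IFN-γ quantified in supernatant by AlphaLISA.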 Format: cell-based. Particulars: normalized to 3 μM reference compound with anti-CD3 plus anti-CD28 as 100% activation.
Description: Human Whole Blood IFN-γ Assay
Human venous whole blood (22.5 μL per well), obtained from healthy donors, was pre-treated with compounds for one hour at 37° C. in a humidified 95% air/5% CO2 incubator. The blood was stimulated with 2.5 μL anti-human CD3 and anti-CD28 mAb at a final concentration of 1 μg/mL each for 24 hours at 37° C. IFN-γ in the supernatants was measured using AlphLISA kit (Cat # AL217).
Assay [4] deals with T2, human DGKζ (Homo sapiens, UniProt Q13574).
T2 construct: TVMV protease cleavage site (C); Hexa-His (C); made in house; host or cells: Sf9 insect cells (baculovirus, Bac-to-Bac)
The assay can be described thus: DGKζ LIPGLO assay (extruded liposome substrate), in vitro DGK inhibition. Particulars: read-out: DGKz LIPGLO IC50. In kind it is biochemical.

The mark [5] stands for this setting: Homo sapiens, 24 h, human whole blood, read-out: INFg Whole Blood Normalized Agonist EC50.
The mark [6] stands for this setting: human whole blood, read-out: INFg Whole Blood Normalized Agonist EC50.

Usually IC50 stands for the concentration at which inhibition is half-maximal. One may read the EC50 as the concentration giving half of the maximal effect.

T2 sequence (Q13574 with tags, fused parts or gaps isoform Q13574-4): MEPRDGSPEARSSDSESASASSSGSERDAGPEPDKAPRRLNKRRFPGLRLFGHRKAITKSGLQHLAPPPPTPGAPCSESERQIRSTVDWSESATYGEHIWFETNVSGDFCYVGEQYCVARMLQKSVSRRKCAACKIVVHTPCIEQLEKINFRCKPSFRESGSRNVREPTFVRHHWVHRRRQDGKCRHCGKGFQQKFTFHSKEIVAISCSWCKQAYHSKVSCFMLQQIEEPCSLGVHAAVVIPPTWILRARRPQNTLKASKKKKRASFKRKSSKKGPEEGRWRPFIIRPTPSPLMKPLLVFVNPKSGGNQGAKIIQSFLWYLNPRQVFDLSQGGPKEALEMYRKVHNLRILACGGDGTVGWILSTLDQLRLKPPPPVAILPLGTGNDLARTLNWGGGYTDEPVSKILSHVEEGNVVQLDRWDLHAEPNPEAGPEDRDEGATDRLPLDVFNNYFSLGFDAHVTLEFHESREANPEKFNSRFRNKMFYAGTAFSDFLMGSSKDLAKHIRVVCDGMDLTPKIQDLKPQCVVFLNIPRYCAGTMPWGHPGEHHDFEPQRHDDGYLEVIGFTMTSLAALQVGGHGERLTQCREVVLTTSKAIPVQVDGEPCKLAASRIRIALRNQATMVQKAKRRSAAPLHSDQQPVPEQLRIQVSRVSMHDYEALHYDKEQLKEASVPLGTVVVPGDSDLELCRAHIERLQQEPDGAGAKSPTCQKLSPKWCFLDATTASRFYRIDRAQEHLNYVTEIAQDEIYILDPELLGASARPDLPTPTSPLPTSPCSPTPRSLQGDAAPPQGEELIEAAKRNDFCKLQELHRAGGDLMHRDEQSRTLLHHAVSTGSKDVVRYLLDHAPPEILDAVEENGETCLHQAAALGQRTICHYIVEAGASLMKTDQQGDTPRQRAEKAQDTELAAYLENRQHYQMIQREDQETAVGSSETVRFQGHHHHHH
T1 sequence (P23743 with tags, fused parts or gaps): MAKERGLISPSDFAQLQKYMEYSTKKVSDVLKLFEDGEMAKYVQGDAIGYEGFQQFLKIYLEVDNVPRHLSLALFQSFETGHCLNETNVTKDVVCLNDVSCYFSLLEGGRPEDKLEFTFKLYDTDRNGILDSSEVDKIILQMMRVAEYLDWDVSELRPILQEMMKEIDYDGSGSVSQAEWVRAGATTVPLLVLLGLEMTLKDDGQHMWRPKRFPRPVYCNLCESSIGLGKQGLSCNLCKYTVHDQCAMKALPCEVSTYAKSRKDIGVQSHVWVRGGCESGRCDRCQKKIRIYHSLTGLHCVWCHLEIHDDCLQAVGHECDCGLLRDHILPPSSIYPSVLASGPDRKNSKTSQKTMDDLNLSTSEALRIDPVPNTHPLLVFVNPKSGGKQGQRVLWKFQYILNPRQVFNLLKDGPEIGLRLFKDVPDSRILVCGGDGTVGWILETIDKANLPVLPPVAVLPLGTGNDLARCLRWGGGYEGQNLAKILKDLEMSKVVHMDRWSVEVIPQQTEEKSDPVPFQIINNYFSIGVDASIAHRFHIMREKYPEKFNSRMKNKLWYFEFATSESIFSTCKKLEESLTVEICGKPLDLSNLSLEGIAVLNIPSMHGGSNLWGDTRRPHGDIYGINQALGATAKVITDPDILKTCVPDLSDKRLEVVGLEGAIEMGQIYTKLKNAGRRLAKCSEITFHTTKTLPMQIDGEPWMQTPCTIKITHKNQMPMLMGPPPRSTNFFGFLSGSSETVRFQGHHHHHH

Take `C[C@@H]1CN(C(c2ccc(F)cc2)c2ccc(F)cc2)[C@H](C)CN1c1cc(=O)n(C)c2ccc(C#N)nc12` [Example 131, 8-((2R,5R)-4-(bis(4-fluorophenyl)methyl)-2,5-dimethylpiperazin-1-yl)-5-methyl-6-oxo-5,6-dihydro-1,5-naphthyridine-2-carbonitrile]: the IC50 in assay [1] (Mus musculus, MC-38) is 5.9 µM.

Turning to `Cn1c(=O)cc(N2CCN(C(c3ccc(F)cc3)c3ccc(F)cc3)CC2C#N)c2nc(C#N)ccc21` (single isomer, unassigned) [Example 143, 8-(4-(bis(4-fluorophenyl)methyl)-2-cyanopiperazin-1-yl)-5-methyl-6-oxo-5,6-dihydro-1,5-naphthyridine-2-carbonitrile], the IC50 in assay [2] (liposome (LIPGLO) assay) amounted to 5.4 µM; in assay [1] (Mus musculus, MC-38), 0.33 µM; in assay [4] (liposome (LIPGLO) assay) it was 6.4 µM. Moreover, the EC50 in assay [3] (setting [5]) was 5.7 µM.

For the molecule `Cn1c(=O)cc(N2CCN(C(c3ccc(F)cc3)c3ccc(F)cc3)CC2C2CC2)c2nc(C#N)ccc21` (single isomer, unassigned) [Example 24, 8-(4-(bis(4-fluorophenyl)methyl)-2-cyclopropylpiperazin-1-yl)-5-methyl-6-oxo-5,6-dihydro-1,5-naphthyridine-2-carbonitrile], the IC50 in assay [2] (liposome (LIPGLO) assay) stood at 1.5 µM; in assay [1], 0.2 µM; in assay [4] (liposome (LIPGLO) assay), 3.9 µM. For the same molecule, the EC50 in assay [3] (setting [6]) is 13 µM.

For the molecule `CC1C(C)N(C(c2ccc(F)cc2)c2ccc(F)cc2)CCN1c1cc(=O)n(C)c2ccc(C#N)nc12` (single isomer, unassigned) [Example 123, 8-(4-(bis(4-fluorophenyl)methyl)-2,3-dimethylpiperazin-1-yl)-5-methyl-6-oxo-5,6-dihydro-1,5-naphthyridine-2-carbonitrile], the IC50 in assay [2] (liposome (LIPGLO) assay) came out at 2.4 µM; in assay [1], 2.4 µM; in assay [4] (liposome (LIPGLO) assay), 240 µM. The EC50 in assay [3] (setting [6]) is 35 µM.

For `COC(=O)C1CN(c2cc(=O)n(C)c3ccc(C#N)nc23)CCN1C(c1ccc(F)cc1)c1ccc(F)cc1OC` (single isomer, unassigned) [Example 69, Methyl 4-(6-cyano-1-methyl-2-oxo-1,2-dihydro-1,5-naphthyridin-4-yl)-1-((4-fluoro-2-methoxyphenyl)(4-fluorophenyl)methyl)piperazine-2-carboxylate], the IC50 was 21 µM in assay [2] (liposome (LIPGLO) assay), 0.22 µM in assay [1] and 0.85 µM in assay [4] (liposome (LIPGLO) assay). The EC50 in assay [3] (setting [6]) came out at 2.5 µM.

Take `COc1cc(F)ccc1C(c1ccc(F)cc1)N1CCN(c2cc(=O)n(C)c3ccc(C#N)nc23)[C@@H](C)C1` (single isomer, unassigned) [Example 129]: the IC50 in assay [2] (liposome (LIPGLO) assay) is 12 µM; in assay [1] (Mus musculus, MC-38) it was 0.71 µM; in assay [4] (liposome (LIPGLO) assay), 0.82 µM. Moreover, in assay [3] (setting [5]), the EC50 was 5.4 µM.

For `CC1C(C)N(C(c2ccc(F)cc2)c2ccc(F)cc2)CCN1c1cc(=O)n(C)c2ccc(C#N)nc12` (single isomer, unassigned) [Example 124, 8-(4-(bis(4-fluorophenyl)methyl)-2,3-dimethylpiperazin-1-yl)-5-methyl-6-oxo-5,6-dihydro-1,5-naphthyridine-2-carbonitrile], the IC50 in assay [2] (liposome (LIPGLO) assay) amounted to 9.9 µM; in assay [1], 0.39 µM; in assay [4] (liposome (LIPGLO) assay) it was 15 µM. Besides, the EC50 in assay [3] (setting [6]) stood at 4.8 µM.

Take `C[C@@H]1CN(c2c(C#N)c(=O)n(C)c3ccc(C#N)nc23)CCN1C(c1ccc(Cl)cc1)c1ccc(Cl)cc1` [Example 103, (R)-8-(4-(bis(4-chlorophenyl)methyl)-3-methylpiperazin-1-yl)-5-methyl-6-oxo-5,6-dihydro-1,5-naphthyridine-2,7-dicarbonitrile]: the IC50 in assay [1] (Mus musculus, MC-38) was determined as 0.076 µM.

`CC[C@H]1CN(C(c2ccc(F)cc2)c2ccc(F)cc2)CCN1c1cc(=O)n(C)c2ccc(C#N)nc12` [Example 127, (S)-8-(4-(bis(4-fluorophenyl)methyl)-2-ethylpiperazin-1-yl)-5-methyl-6-oxo-5,6-dihydro-1,5-naphthyridine-2-carbonitrile]: the IC50 in assay [1] (Mus musculus, MC-38) came to 0.36 µM. In addition, in assay [3] (Homo sapiens, 24 h, read-out: INFg Whole Blood Normalized Agonist EC50, human whole blood), the EC50 was found to be 4.3 µM.

Take `Cc1ccc(C(C)N2CCN(c3c(C#N)c(=O)n(C)c4ccc(C#N)nc34)C[C@H]2C)cc1` (single isomer, unassigned) [Example 953]: the IC50 is 1.1 µM in assay [2] (DGKα liposome (LIPGLO) assay); 1.7 µM in assay [1] (murine CTL, IFN-γ); 15 µM in assay [4] (DGKζ liposome (LIPGLO) assay).

Turning to `COC(=O)C1CN(c2cc(=O)n(C)c3ccc(C#N)nc23)CCN1C(c1ccc(F)cc1)c1ccc(F)cc1OC` (single isomer, unassigned) [Example 72, Methyl 4-(6-cyano-1-methyl-2-oxo-1,2-dihydro-1,5-naphthyridin-4-yl)-1-((4-fluoro-2-methoxyphenyl)(4-fluorophenyl)methyl)piperazine-2-carboxylate], the IC50 in assay [2] (liposome (LIPGLO) assay) was 40 µM; in assay [1], 0.078 µM; in assay [4] (liposome (LIPGLO) assay), 0.76 µM. For the same molecule, the EC50 in assay [3] (setting [6]) is 1.2 µM.

`CC(C)C(C)(F)C1CN(c2cc(=O)n(C)c3ccc(C#N)nc23)CCN1C(c1ccc(F)cc1)c1ccc(F)cc1` (single isomer, unassigned) [Example 90, 8-(4-(bis(4-fluorophenyl)methyl)-3-(2-fluoro-3-methylbutan-2-yl)piperazin-1-yl)-5-methyl-6-oxo-5,6-dihydro-1,5-naphthyridine-2-carbonitrile, TFA]: the IC50 in assay [2] (liposome (LIPGLO) assay) amounted to 240 µM; in assay [1] (Mus musculus, MC-38), 4.8 µM; in assay [4] (liposome (LIPGLO) assay), 240 µM. The EC50 in assay [3] (setting [5]) amounted to 20 µM.

Regarding `Cn1c(=O)cc(N2CCN(C(c3ccc(F)cc3)c3ccc(F)cc3)CC2C2CC2)c2nc(C#N)ccc21` (single isomer, unassigned) [Example 23, 8-(4-(bis(4-fluorophenyl)methyl)-2-cyclopropylpiperazin-1-yl)-5-methyl-6-oxo-5,6-dihydro-1,5-naphthyridine-2-carbonitrile], the IC50 was determined as 240 µM in assay [2] (liposome (LIPGLO) assay), 1.4 µM in assay [1] and 100 µM in assay [4] (liposome (LIPGLO) assay). In addition, the EC50 in assay [3] (setting [5]) was found to be 10 µM.

Regarding `COc1cc(F)ccc1C(c1ccc(F)cc1)N1C[C@H](C)N(c2c([N+](=O)[O-])c(=O)n(C)c3ccc(C#N)nc23)C[C@H]1C` (single isomer, unassigned) [Example 122], the IC50 stood at 210 µM in assay [2] (liposome (LIPGLO) assay); 3.8 µM in assay [1] (Mus musculus, MC-38); 4.8 µM in assay [4] (liposome (LIPGLO) assay). Further, in assay [3] (setting [5]), the EC50 was 10 µM.

As for `C[C@H]1CN(c2c(Cl)c(=O)n(C)c3ccc(C#N)nc23)CCN1C(c1ccc(F)cc1)c1ccc(F)cc1` [Example 36, (S)-8-(4-(bis(4-fluorophenyl)methyl)-3-methylpiperazin-1-yl)-7-chloro-5-methyl-6-oxo-5,6-dihydro-1,5-naphthyridine-2-carbonitrile], in assay [1] (Mus musculus, MC-38), the IC50 amounted to 1.2 µM.

As for `COC(=O)C1CN(c2c(F)c(=O)n(C)c3ccc(C#N)nc23)CCN1C(c1ccc(F)cc1)c1ccc(F)cc1` (single isomer, unassigned) [Example 75, Methyl 1-(bis(4-fluorophenyl)methyl)-4-(6-cyano-3-fluoro-1-methyl-2-oxo-1,2-dihydro-1,5-naphthyridin-4-yl)piperazine-2-carboxylate], the IC50 is 0.99 µM in assay [2] (liposome (LIPGLO) assay), 0.023 µM in assay [1] and 0.4 µM in assay [4] (liposome (LIPGLO) assay).

As to `CC(C)C(=O)C1CN(c2cc(=O)n(C)c3ccc(C#N)nc23)CCN1C(c1ccc(F)cc1)c1ccc(F)cc1` (single isomer, unassigned) [Example 87, 8-(4-(bis(4-fluorophenyl)methyl)-3-isobutyrylpiperazin-1-yl)-5-methyl-6-oxo-5,6-dihydro-1,5-naphthyridine-2-carbonitrile], the IC50 was determined as 28 µM in assay [2] (liposome (LIPGLO) assay), 0.45 µM in assay [1] and 6.6 µM in assay [4] (liposome (LIPGLO) assay).

As for `CC[C@@H]1CN(C(c2ccc(F)cc2)c2ccc(F)cc2)CCN1c1cc(=O)n(C)c2ccc(C#N)nc12` [Example 170, (R)-8-(4-(bis(4-fluorophenyl)methyl)-2-ethylpiperazin-1-yl)-5-methyl-6-oxo-5,6-dihydro-1,5-naphthyridine-2-carbonitrile], the IC50 in assay [1] (Mus musculus, MC-38) is 2.6 µM.

`C[C@@H]1CN(c2cc(=O)n(C)c3ccc(C#N)nc23)[C@@H](C)CN1C(c1ccc(F)cc1)c1ccc(F)cc1` [Example 3, 8-((2S,5R)-4-(bis(4-fluorophenyl)methyl)-2,5-dimethylpiperazin-1-yl)-5-methyl-6-oxo-5,6-dihydro-1,5-naphthyridine-2-carbonitrile]: in assay [1] (Mus musculus, MC-38), the IC50 came to 0.07 µM.
